{"source": "PubChem BioAssay AID256", "about": "(DTP/NCI, 2004)", "test_system": "CD2F1 mice, L1210 leukemia ip, survival T/C", "test": "NCI In Vivo Anticancer Drug Screen. Data for tumor model L1210 Leukemia (intraperitoneal) in CD2F1 (CDF1) mice", "details": "higher = longer survival", "procedure,_shortened": "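Ratio T/C, where T is the treated-group value and C the vehicle-dosed control value, from mice implanted with a transplantable tumor.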", "note": "“And” between values parts separate entries of the source, which are not always exact repeats. Equal entries are not always repeated. Inconclusive results and toxic doses are left out."}
{"smiles": "CN(C)/N=N/c1nc[nH]c1C(N)=O", "values": [{"measurement": "T/C", "setting": "endpoint: mean survival time, dose: 100.0 mg/kg/injection, schedule: Q03DX003 (ip), vehicle: saline", "result": "120 % of control"}, {"measurement": "T/C", "setting": "endpoint: mean survival time, dose: 100.0 mg/kg/injection, schedule: Q03HX016 (ip), vehicle: steriod suspending solution", "result": "122 % of control"}, {"measurement": "T/C", "setting": "endpoint: mean survival time, dose: 100.0 mg/kg/injection, schedule: Q03HX016 (oral), vehicle: steriod suspending solution", "result": "116 % of control"}, {"measurement": "T/C", "setting": "endpoint: mean survival time, dose: 100.0 mg/kg/injection, schedule: Q04DX003 (ip), vehicle: Klucel (hydroxypropylcellulose) (HPC)", "result": "114 % of control"}, {"measurement": "T/C", "setting": "endpoint: mean survival time, dose: 100.0 mg/kg/injection, schedule: Q04DX003 (ip), vehicle: other", "result": "114 % of control and 120 % of control"}, {"measurement": "T/C", "setting": "endpoint: mean survival time, dose: 100.0 mg/kg/injection, schedule: Q04DX003 (ip), vehicle: saline", "result": "108 % of control"}, {"measurement": "T/C", "setting": "endpoint: mean survival time, dose: 100.0 mg/kg/injection, schedule: Q04DX003 (ip), vehicle: steriod suspending solution", "result": "116 % of control"}, {"measurement": "T/C", "setting": "endpoint: mean survival time, dose: 100.0 mg/kg/injection, schedule: Q04DX003 (oral), vehicle: steriod suspending solution", "result": "116 % of control"}, {"measurement": "T/C", "setting": "endpoint: mean survival time, dose: 100.0 mg/kg/injection, schedule: Q08DX002 (ip), vehicle: steriod suspending solution", "result": "117 % of control"}, {"measurement": "T/C", "setting": "endpoint: mean survival time, dose: 100.0 mg/kg/injection, schedule: Q08DX002 (oral), vehicle: steriod suspending solution", "result": "115 % of control"}, {"measurement": "T/C", "setting": "endpoint: mean survival time, dose: 150.0 mg/kg/injection, schedule: Q01DX001 (oral), vehicle: saline", "result": "101 % of control"}, {"measurement": "T/C", "setting": "endpoint: mean survival time, dose: 150.0 mg/kg/injection, schedule: Q01DX009 (ip), vehicle: Klucel (hydroxypropylcellulose) (HPC)", "result": "172 % of control"}, {"measurement": "T/C", "setting": "endpoint: mean survival time, dose: 180.0 mg/kg/injection, schedule: Q04DX003 (ip), vehicle: saline", "result": "114 % of control and 108 % of control"}, {"measurement": "T/C", "setting": "endpoint: mean survival time, dose: 182.0 mg/kg/injection, schedule: Q01DX009 (ip), vehicle: Klucel (hydroxypropylcellulose) (HPC)", "result": "120 % of control"}, {"measurement": "T/C", "setting": "endpoint: mean survival time, dose: 200.0 mg/kg/injection, schedule: Q01DX001 (ip), vehicle: distilled water + Tween-80", "result": "120 % of control"}, {"measurement": "T/C", "setting": "endpoint: mean survival time, dose: 200.0 mg/kg/injection, schedule: Q01DX007 (ip), vehicle: saline", "result": "159 % of control"}, {"measurement": "T/C", "setting": "endpoint: mean survival time, dose: 200.0 mg/kg/injection, schedule: Q01DX009 (ip), vehicle: DMSO", "result": "174 % of control"}, {"measurement": "T/C", "setting": "endpoint: mean survival time, dose: 200.0 mg/kg/injection, schedule: Q01DX009 (ip), vehicle: saline", "result": "151 % of control"}, {"measurement": "T/C", "setting": "endpoint: mean survival time, dose: 200.0 mg/kg/injection, schedule: Q01DX009 (ip), vehicle: steriod suspending solution", "result": "157 % of control"}, {"measurement": "T/C", "setting": "endpoint: mean survival time, dose: 200.0 mg/kg/injection, schedule: Q01DX009 (ip), vehicle: water", "result": "118 % of control"}, {"measurement": "T/C", "setting": "endpoint: mean survival time, dose: 200.0 mg/kg/injection, schedule: Q01DX009 (oral), vehicle: steriod suspending solution", "result": "169 % of control"}, {"measurement": "T/C", "setting": "endpoint: mean survival time, dose: 200.0 mg/kg/injection, schedule: Q04DX003 (ip), vehicle: Klucel (hydroxypropylcellulose) (HPC)", "result": "123 % of control"}, {"measurement": "T/C", "setting": "endpoint: mean survival time, dose: 200.0 mg/kg/injection, schedule: Q04DX003 (ip), vehicle: steriod suspending solution", "result": "116 % of control"}, {"measurement": "T/C", "setting": "endpoint: mean survival time, dose: 200.0 mg/kg/injection, schedule: Q04DX003 (oral), vehicle: steriod suspending solution", "result": "122 % of control"}, {"measurement": "T/C", "setting": "endpoint: mean survival time, dose: 200.0 mg/kg/injection, schedule: Q08DX002 (oral), vehicle: steriod suspending solution", "result": "118 % of control"}, {"measurement": "T/C", "setting": "endpoint: mean survival time, dose: 300.0 mg/kg/injection, schedule: Q01DX001 (oral), vehicle: saline", "result": "113 % of control"}, {"measurement": "T/C", "setting": "endpoint: mean survival time, dose: 364.0 mg/kg/injection, schedule: Q01DX009 (ip), vehicle: Klucel (hydroxypropylcellulose) (HPC)", "result": "63 % of control"}, {"measurement": "T/C", "setting": "endpoint: mean survival time, dose: 400.0 mg/kg/injection, schedule: Q01DX005 (ip), vehicle: other", "result": "113 % of control"}, {"measurement": "T/C", "setting": "endpoint: mean survival time, dose: 400.0 mg/kg/injection, schedule: Q01DX009 (ip), vehicle: water", "result": "96 % of control"}, {"measurement": "T/C", "setting": "endpoint: mean survival time, dose: 400.0 mg/kg/injection, schedule: Q01DX009 (oral), vehicle: steriod suspending solution", "result": "152 % of control"}, {"measurement": "T/C", "setting": "endpoint: mean survival time, dose: 400.0 mg/kg/injection, schedule: Q08DX002 (ip), vehicle: steriod suspending solution", "result": "121 % of control"}, {"measurement": "T/C", "setting": "endpoint: mean survival time, dose: 600.0 mg/kg/injection, schedule: Q01DX001 (oral), vehicle: saline", "result": "121 % of control"}, {"measurement": "T/C", "setting": "endpoint: mean survival time, dose: 800.0 mg/kg/injection, schedule: Q08DX002 (ip), vehicle: steriod suspending solution", "result": "164 % of control"}, {"measurement": "T/C", "setting": "endpoint: mean survival time, dose: 800.0 mg/kg/injection, schedule: Q08DX002 (oral), vehicle: steriod suspending solution", "result": "123 % of control"}, {"measurement": "T/C", "setting": "endpoint: median survival time, dose: 9.8 mg/kg/injection, schedule: Q03HX008 (ip), vehicle: Klucel (hydroxypropylcellulose) (HPC)", "result": "105 % of control"}, {"measurement": "T/C", "setting": "endpoint: median survival time, dose: 22.2 mg/kg/injection, schedule: Q03HX008 (ip), vehicle: Klucel (hydroxypropylcellulose) (HPC)", "result": "114 % of control"}, {"measurement": "T/C", "setting": "endpoint: median survival time, dose: 33.3 mg/kg/injection, schedule: Q03HX008 (ip), vehicle: Klucel (hydroxypropylcellulose) (HPC)", "result": "123 % of control"}, {"measurement": "T/C", "setting": "endpoint: median survival time, dose: 48.0 mg/kg/injection, schedule: Q01DX005 (ip), vehicle: Klucel (hydroxypropylcellulose) (HPC)", "result": "115 % of control"}, {"measurement": "T/C", "setting": "endpoint: median survival time, dose: 50.0 mg/kg/injection, schedule: Q02DX005 (ip), vehicle: Klucel (hydroxypropylcellulose) (HPC)", "result": "121 % of control"}, {"measurement": "T/C", "setting": "endpoint: median survival time, dose: 72.0 mg/kg/injection, schedule: Q01DX005 (ip), vehicle: Klucel (hydroxypropylcellulose) (HPC)", "result": "123 % of control"}, {"measurement": "T/C", "setting": "endpoint: median survival time, dose: 100.0 mg/kg/injection, schedule: Q02DX005 (ip), vehicle: Klucel (hydroxypropylcellulose) (HPC)", "result": "117 % of control"}, {"measurement": "T/C", "setting": "endpoint: median survival time, dose: 108.0 mg/kg/injection, schedule: Q01DX005 (ip), vehicle: Klucel (hydroxypropylcellulose) (HPC)", "result": "124 % of control"}, {"measurement": "T/C", "setting": "endpoint: median survival time, dose: 240.0 mg/kg/injection, schedule: Q01DX001 (ip), vehicle: Klucel (hydroxypropylcellulose) (HPC)", "result": "115 % of control"}, {"measurement": "T/C", "setting": "endpoint: median survival time, dose: 600.0 mg/kg/injection, schedule: Q01DX001 (ip), vehicle: Klucel (hydroxypropylcellulose) (HPC)", "result": "121 % of control"}, {"measurement": "T/C", "setting": "endpoint: median survival time, dose: 900.0 mg/kg/injection, schedule: Q01DX001 (ip), vehicle: Klucel (hydroxypropylcellulose) (HPC)", "result": "123 % of control"}]}
